Laboratory results as given in US20250235460A1, “COMBINATION THERAPY USING GLUCOSE-DEPENDENT INSULINOTROPIC POLYPEPTIDE RECEPTOR ANTAGONIST COMPOUNDS AND GLP-1 RECEPTOR AGONIST COMPOUNDS” (Pfizer Inc., priority 2024, published 2025).

How the values were obtained:
human GLP-1R [1] = target: human GLP-1R (Homo sapiens, UniProt P43220, G168S); experiment: CHO GLP-1R Clone H6 cAMP HTRF agonist assay (Assay 1, high receptor density); format: cell-based; conditions: for EC50: geometric mean; for Emax: CHO GLP-1R clone H6, arithmetic mean, relative to saturating GLP-1 (1 μM), read-out: Assay 1 Emax (%)
In short: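 Averaging differs by parameter: a geometric mean for EC50 and an arithmetic mean for Emax, each over the stated replicate number.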

human GLP-1R [2] = target: human GLP-1R (Homo sapiens, UniProt P43220, L260F); experiment: CHO GLP-1R Clone C6 cAMP HTRF agonist assay (Assay 2, low receptor density); format: cell-based; conditions: for EC50: geometric mean; for Emax: CHO GLP-1R clone C6, relative to saturating GLP-1 (1 μM)
From the text: In Table 5 and Table 6, assay data are presented to two (2) significant figures as the geometric mean (EC50s) and arithmetic mean (Emax) based on the number of replicates listed (Number). A blank cell means there was no data for that Example or the Emax was not calculated.

[3] = CHO GLP-1R clone, low receptor density, cAMP HTRF

Chain of human GLP-1R (Homo sapiens, UniProt P43220, L260F) (P43220 24-463 L260F): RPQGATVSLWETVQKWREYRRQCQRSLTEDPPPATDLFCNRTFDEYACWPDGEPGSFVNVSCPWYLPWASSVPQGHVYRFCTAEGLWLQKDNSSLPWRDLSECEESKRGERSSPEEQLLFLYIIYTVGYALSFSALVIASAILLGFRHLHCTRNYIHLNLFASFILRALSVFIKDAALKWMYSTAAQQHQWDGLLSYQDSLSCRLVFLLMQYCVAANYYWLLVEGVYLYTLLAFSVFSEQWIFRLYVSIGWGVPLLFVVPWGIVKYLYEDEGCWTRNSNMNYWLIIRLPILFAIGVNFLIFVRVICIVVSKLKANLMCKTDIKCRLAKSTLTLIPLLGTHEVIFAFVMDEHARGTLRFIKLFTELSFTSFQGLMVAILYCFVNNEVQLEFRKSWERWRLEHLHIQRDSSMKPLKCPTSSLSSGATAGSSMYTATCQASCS
Chain of human GLP-1R (Homo sapiens, UniProt P43220, G168S) (P43220 24-463 G168S): as the sequence (P43220 24-463 L260F) above, with G145S, F237L counted along it

SMILES: COCCn1c(CN2CC[C@H](c3cccc(OCc4ccc(Cl)cc4F)n3)[C@@H](F)C2)nc2ccc(C(=O)O)cc21 (racemic) [Compound 189B, rac 2-{[(3S,4S)-4-{6-[(4-chloro-2-fluorobenzyl)oxy]pyridin-2-yl}-3-fluoropiperidin-1-yl]methyl}-1-(2-methoxyethyl)-1H-benzimidazole-6-carboxylic acid]
- EC50 (human GLP-1R [1]; CHO GLP-1R clone H6, cAMP HTRF): 68 nM
- Emax (human GLP-1R [1]): 77%
- EC50 (human GLP-1R [2]; CHO GLP-1R clone C6, cAMP HTRF): 1700 nM
- Emax (human GLP-1R [2]; arithmetic mean): 110%

SMILES: COCCn1c(CN2CC[C@H](c3cccc(OCc4ccc(Cl)cc4F)n3)[C@@H](O)C2)nc2ccc(C(=O)O)cc21 (racemic) [Compound 190B, rac-2-{[(3S,4S)-4-{6-[(4-chloro-2-fluorobenzyl)oxy]pyridin-2-yl}-3-hydroxypiperidin-1-yl]methyl}-1-(2-methoxyethyl)-1H-benzimidazole-6-carboxylic acid]
- EC50 (human GLP-1R [1]; CHO GLP-1R clone H6, cAMP HTRF): 2.8 nM
- Emax (human GLP-1R [1]): 82%
- EC50 (human GLP-1R [2]; CHO GLP-1R clone C6, cAMP HTRF): 68 nM
- Emax (human GLP-1R [2]; arithmetic mean): 81%

SMILES: COCCn1c(CN2CC[C@H](c3cccc(OCc4ccc(Cl)cc4F)n3)[C@H](O)C2)nc2ccc(C(=O)O)cc21 (racemic) [Compound 191B, rac-2-{[(3R,4S)-4-{6-[(4-chloro-2-fluorobenzyl)oxy]pyridin-2-yl}-3-hydroxypiperidin-1-yl]methyl}-1-(2-methoxyethyl)-1H-benzimidazole-6-carboxylic acid]
- EC50 (human GLP-1R [1]; CHO GLP-1R clone H6, cAMP HTRF): 0.55 nM
- Emax (human GLP-1R [1]): 77%
- EC50 (human GLP-1R [2]; CHO GLP-1R clone C6, cAMP HTRF): 9.2 nM
- Emax (human GLP-1R [2]; arithmetic mean): 94%

SMILES: COCCn1c(CN2CC[C@H](c3cccc(OCc4ccc(Cl)cc4F)n3)[C@H](C)C2)nc2ccc(C(=O)O)cc21 (racemic) [Compound 192B, rac-2-{[(3R,4R)-4-{6-[(4-chloro-2-fluorobenzyl)oxy]pyridin-2-yl}-3-methylpiperidin-1-yl]methyl}-1-(2-methoxyethyl)-1H-benzimidazole-6-carboxylic acid]
- EC50 (human GLP-1R [1]; CHO GLP-1R clone H6, cAMP HTRF): 0.99 nM
- Emax (human GLP-1R [1]): 95%
- EC50 (human GLP-1R [2]; CHO GLP-1R clone C6, cAMP HTRF): 10 nM
- Emax (human GLP-1R [2]; arithmetic mean): 120%

SMILES: COCCn1c(CN2CC[C@H](c3cccc(OCc4ccc(Cl)cc4F)n3)[C@@H](C)C2)nc2ccc(C(=O)O)cc21 (racemic) [Compound 193B, rac-2-{[(3S,4R)-4-{6-[(4-chloro-2-fluorobenzyl)oxy]pyridin-2-yl}-3-methylpiperidin-1-yl]methyl}-1-(2-methoxyethyl)-1H-benzimidazole-6-carboxylic acid]
- EC50 (human GLP-1R [1]; CHO GLP-1R clone H6, cAMP HTRF): 0.3 nM
- EC50 (human GLP-1R [2]; CHO GLP-1R clone C6, cAMP HTRF): 4.1 nM
- Emax (human GLP-1R [2]; arithmetic mean): 100%

SMILES: CO[C@@H]1CCC[C@@H]1Cn1c(CN2CCC(c3cccc(OCc4ccc(Cl)cc4F)n3)CC2)nc2ccc(C(=O)O)cc21 (racemic) [Compound 196B, rac-2-[(4-{6-[(4-chloro-2-fluorobenzyl)oxy]pyridin-2-yl}piperidin-1-yl)methyl]-1-{[(1S,2S)-2-methoxycyclopentyl]methyl}-1H-benzimidazole-6-carboxylic acid]
- EC50 (human GLP-1R [1]; CHO GLP-1R clone H6, cAMP HTRF): 4.1 nM
- Emax (human GLP-1R [1]): 67%
- EC50 (human GLP-1R [2]; CHO GLP-1R clone C6, cAMP HTRF): 170 nM
- Emax (human GLP-1R [2]; arithmetic mean): 75%

SMILES: COCCn1c(CN2CC[C@H](c3cccc(OCc4ccc(Cl)cc4F)n3)C[C@H]2C)nc2ccc(C(=O)O)cc21 (relative stereo) [Compound 357B, trans 2-{[4-{6-[(4-Chloro-2-fluorobenzyl)oxy]pyridin-2-yl}-2-methylpiperidin-1-yl]methyl}-1-(2-methoxyethyl)-1H-benzimidazole-6-carboxylic acid]
- EC50 (human GLP-1R [1]; CHO GLP-1R clone H6, cAMP HTRF): 28 nM
- Emax (human GLP-1R [1]): 82%
- EC50 (human GLP-1R [2]; CHO GLP-1R clone C6, cAMP HTRF): 350 nM
- Emax (human GLP-1R [2]; arithmetic mean): 70%

SMILES: COCCn1c(CN2CC[C@@H](c3cccc(OCc4ccc(Cl)cc4F)n3)C[C@H]2C)nc2ccc(C(=O)O)cc21 (relative stereo) [Compound 358B, cis 2-{[4-{6-[(4-Chloro-2-fluorobenzyl)oxy]pyridin-2-yl}-2-methylpiperidin-1-yl]methyl}-1-(2-methoxyethyl)-1H-benzimidazole-6-carboxylic acid]
- EC50 (human GLP-1R [1]; CHO GLP-1R clone H6, cAMP HTRF): 4.2 nM
- Emax (human GLP-1R [1]): 69%
- EC50 (human GLP-1R [2]; CHO GLP-1R clone C6, cAMP HTRF): 77 nM
- Emax (human GLP-1R [2]; arithmetic mean): 75%

SMILES: CCn1cncc1Cn1c(CN2CCC(c3cccc4c3OC(C)(c3ccc(Cl)cc3F)O4)CC2)nc2ccc(C(=O)O)cc21 (single isomer, unassigned; ent-1) [Compound 21B, Ammonium 2-({4-[2-(4-chloro-2-fluorophenyl)-2-methyl-1,3-benzodioxol-4-yl]piperidin-1-yl}methyl)-1-[(1-ethyl-1H-imidazol-5-yl)methyl]-1H-benzimidazole-6-carboxylate, ENT-1]
- EC50 (human GLP-1R [1]; CHO GLP-1R clone, cAMP HTRF): 0.079 nM
- EC50 (human GLP-1R [2]; [3]): 1.1 nM

SMILES: CCn1cncc1Cn1c(CN2CCC(c3cccc4c3OC(C)(c3ccc(Cl)cc3F)O4)CC2)nc2ccc(C(=O)O)cc21.N (single isomer, unassigned; ent-2) [Compound 22B, Ammonium 2-({4-[2-(4-chloro-2-fluorophenyl)-2-methyl-1,3-benzodioxol-4-yl]piperidin-1-yl}methyl)-1-[(1-ethyl-1H-imidazol-5-yl)methyl]-1H-benzimidazole-6-carboxylate, ENT-2]
- EC50 (human GLP-1R [1]; CHO GLP-1R clone, cAMP HTRF): 210 nM
- EC50 (human GLP-1R [2]; [3]): 1000 nM
- Assay 2 Emax (human GLP-1R [2]; relative to saturating full agonist GLP-1 (1 μM), arithmetic mean): 87%

SMILES: CC1CN(c2cccc(OCc3ccc(Cl)cc3F)n2)CCN1Cc1nc2ccc(C(=O)O)cc2n1Cc1cocn1 (stereo in doubt) [Compound 240B, 2-{[(2S)-4-{6-[(4-chloro-2-fluorobenzyl)oxy]pyridin-2-yl}-2-methylpiperazin-1-yl]methyl}-1-(1,3-oxazol-4-ylmethyl)-1H-benzimidazole-6-carboxylic acid]
- EC50 (human GLP-1R [1]; CHO GLP-1R clone H6, cAMP HTRF): 0.5 nM
- Emax (human GLP-1R [1]): 78%
- EC50 (human GLP-1R [2]; CHO GLP-1R clone C6, cAMP HTRF): 16 nM
- Emax (human GLP-1R [2]; arithmetic mean): 86%

SMILES: CC1CN(c2cccc(OCc3ccc(C#N)cc3F)n2)CCN1Cc1nc2ccc(C(=O)O)cc2n1Cc1cnco1 (stereo in doubt) [Compound 242B, 2-{[(2S)-4-{6-[(4-cyano-2-fluorobenzyl)oxy]pyridin-2-yl}-2-methylpiperazin-1-yl]methyl}-1-(1,3-oxazol-5-ylmethyl)-1H-benzimidazole-6-carboxylic acid]
- EC50 (human GLP-1R [1]; CHO GLP-1R clone H6, cAMP HTRF): 0.52 nM
- Emax (human GLP-1R [1]): 70%
- EC50 (human GLP-1R [2]; CHO GLP-1R clone C6, cAMP HTRF): 8.5 nM
- Emax (human GLP-1R [2]; arithmetic mean): 78%

SMILES: O=C(O)c1ccc2nc(CN3CCC(c4cccc5c4O[C@H](c4ccc(Cl)cc4F)O5)CC3)n(C[C@@H]3CCO3)c2c1 [Compound 4B, Ammonium 2-({4-[(2R)-2-(4-chloro-2-fluorophenyl)-1,3-benzodioxol-4-yl]piperidin-1-yl}methyl)-1-[(2S)-oxetan-2-ylmethyl]-1H-benzimidazole-6-carboxylate]
- EC50 (human GLP-1R [2]; [3]): > 20000 nM

SMILES: N#Cc1ccc(COc2cccc(C3CCN(Cc4nc5ccc(C(=O)O)cc5n4C[C@@H]4CCO4)CC3)n2)c(F)c1 [Compound 110B, 2-[(4-{6-[(4-cyano-2-fluorobenzyl)oxy]pyridin-2-yl}piperidin-1-yl)methyl]-1-[(2S)-oxetan-2-ylmethyl]-1H-benzimidazole-6-carboxylic acid]
- Emax (human GLP-1R [2]; arithmetic mean): 82%

SMILES: N#Cc1ccc(COc2cccc(C3CCN(Cc4nc5ccc(C(=O)O)cc5n4C[C@@H]4CCOC4)CC3)n2)c(F)c1 [Compound 126B, 2-[(4-{6-[(4-cyano-2-fluorobenzyl)oxy]pyridin-2-yl}piperidin-1-yl)methyl]-1-[(3S)-tetrahydrofuran-3-ylmethyl]-1H-benzimidazole-6-carboxylic acid]
- Emax (human GLP-1R [2]; arithmetic mean): 90%

SMILES: N#Cc1ccc(COc2nc(C3CCN(Cc4nc5ccc(C(=O)O)cc5n4C[C@@H]4CCCO4)CC3)ccc2F)cc1 [Compound 128B, 2-[(4-{6-[(4-cyanobenzyl)oxy]-5-fluoropyridin-2-yl}piperidin-1-yl)methyl]-1-[(2S)-tetrahydrofuran-2-ylmethyl]-1H-benzimidazole-6-carboxylic acid]
- Emax (human GLP-1R [2]; arithmetic mean): 86%

SMILES: N#Cc1ccc(COc2nc(C3CCN(Cc4nc5ccc(C(=O)O)cc5n4C[C@H]4CCCO4)CC3)ccc2F)cc1 [Compound 129B, 2-[(4-{6-[(4-cyanobenzyl)oxy]-5-fluoropyridin-2-yl}piperidin-1-yl)methyl]-1-[(2R)-tetrahydrofuran-2-ylmethyl]-1H-benzimidazole-6-carboxylic acid]
- Emax (human GLP-1R [2]; arithmetic mean): 98%

SMILES: Cc1nc(C(C)n2c(CN3CCC(c4cccc(OCc5ccc(Cl)cc5F)n4)CC3)nc3ccc(C(=O)O)cc32)n[nH]1 (stereo not drawn) [Compound 342B, 2-[(4-{6-[(4-chloro-2-fluorobenzyl)oxy]pyridin-2-yl}piperidin-1-yl)methyl]-1-[1-(5-methyl-1H-1,2,4-triazol-3-yl)ethyl]-1H-benzimidazole-6-carboxylic acid]
- EC50 (human GLP-1R [1]; CHO GLP-1R clone H6, cAMP HTRF): 1300 nM
- Emax (human GLP-1R [1]): 42%

SMILES: O=C(O)c1ccc2nc(CN3CCC(c4cccc(OCc5ccc(Cl)cc5F)n4)CC3)n(C[C@H]3CCCO3)c2c1 [Compound 343B, 2-[(4-{6-[(4-chloro-2-fluorobenzyl)oxy]pyridin-2-yl}piperidin-1-yl)methyl]-1-[(2R)-tetrahydrofuran-2-ylmethyl]-1H-benzimidazole-6-carboxylic acid]
- EC50 (human GLP-1R [1]; CHO GLP-1R clone H6, cAMP HTRF): 510 nM
- Emax (human GLP-1R [1]): 64%

SMILES: COCCn1c(CN2CCN(c3cccc(OCc4ccc(Cl)cc4F)n3)CC23CC3)nc2ccc(C(=O)O)cc21 [Compound 349B, 2-[(7-{6-[(4-chloro-2-fluorobenzyl)oxy]pyridin-2-yl}-4,7-diazaspiro[2.5]oct-4-yl)methyl]-1-(2-methoxyethyl)-1H-benzimidazole-6-carboxylic acid]
- EC50 (human GLP-1R [1]; CHO GLP-1R clone H6, cAMP HTRF): 1200 nM
- Emax (human GLP-1R [1]): 58%

SMILES: COCCn1c(CN2CCN(c3cccc(OCc4ccc(Cl)cc4F)n3)C[C@@H]2C2CC2)nc2ccc(C(=O)O)cc21 [Compound 350B, 2-{[(2S)-4-{6-[(4-chloro-2-fluorobenzyl)oxy]pyridin-2-yl}-2-cyclopropylpiperazin-1-yl]methyl}-1-(2-methoxyethyl)-1H-benzimidazole-6-carboxylic acid]
- EC50 (human GLP-1R [1]; CHO GLP-1R clone H6, cAMP HTRF): 420 nM
- Emax (human GLP-1R [1]): 81%
